Laboratory results: patent US20250034108A1, “SODIUM CHANNEL BLOCKERS” (NOVARTIS AG, priority 2023, published 2025)

Experiments:
Format in all cases: cell-based
[1] = target: T1, human Nav1.5 (Homo sapiens (Human), UniProt Q14524); assay: Qpatch automated patch-clamp, peak Nav1.5 current inhibition, 5-Hz AF-like assay (holding potential -85 mV); settings: CHO-K1 cells stably expressing human Nav1.5, holding potential -85 mV, Table 5, read-out: Nav1.5 IC50 (5 Hz, AF Rate)
Description: (§1) Electrophysiology was used to measure the ionic currents in isolated living cells using automated patch-clamp recording, performed using an automated patch-clamp machine called Qpatch (Sophion Bioscience). Two different assay conditions were used to identify compounds with atrial-selective potential. The 5-Hz AF-like assay has more depolarized holding potential at −85 mV to mimic atrial resting membrane potential (RMP) and was used to identify compounds of strong rate-dependence. Active, rate-dependent compounds were then screened at 1 Hz (i.e., sinus rate) at the holding potential of −100 mV to mimic the ventricular scenario and help identify compounds with the largest potency separation or attenuation from the 5-Hz AF-like assay. Such compounds have the potential for treating AF without the QRS liability inherent to Class Ic drugs.
(§2) The sodium current conducted through a cell (via Nav1.5) or electrical signals were processed through a low-pass filter at 5 KHz, re-digitalized and acquired at 20 kHz. Series resistance was not compensated and leak subtraction was performed.
(§3) 1 to 3 million Chinese Hamster Ovary cells (also known as CHO-K1) stably expressing human Nav1.5 were seeded into […] culture flasks with 25 mL medium (consisting of Gibco Dulbecco's Modified Eagle Medium as a base medium with 1% MEM non-essential amino acids, 400 μg/mL Geneticin, 5 μg/mL puromycin and 10% fetal bovine serum) 48-72 hours prior to the experiments. On the day of the experiment, cells were washed once with phosphate-buffered saline (also known as PBS; Gibco) detached with Detachin™ (Genlantis), and re-suspended in CHO—S-SFM II media (Gibco) at 200,000 cells/mL. The CHO—S-SFM II was replaced with assay solutions prior to the assays. Whole-cell currents were recorded at room temperature in the whole-cell configuration. The external aqueous assay solution (pH=7.4; Osm=307-315) contained the following (the concentration for each component is expressed in parentheses in mM): NaCl (140 mM), KCl (4 mM), CaCl2) (2 mM), MgCl2 (1 mM), 4-(2-hydroxyethyl)-1-piperazineethanesulfonic acid, also known as HEPES (10 mM), and glucose (5 mM). The internal aqueous assay solution (pH=7.2; Osm=292-295) contained the following (the concentration for each component is expressed in parentheses in mM): CsF (110 mM), CsCl (10 mM), NaCl (10 mM), HEPES (10 mM), and ethylene glycolbis(β-aminoethyl ether)-N,N,N′,N′-tetraacetic acid, also known as EGTA (10 mM).
To assess peak Nav1.5 current inhibition in an atrial fibrillation-mimicking condition (Nav1.5 IC50 (5 Hz, AF-like rate) (μM)), compounds were first prepared at 10 mM in DMSO, and cells were pre-incubated with test compounds at each concentration for 3 min. in an ascending order of 0, 0.37, 1.1, 3.3, 10 and 30 μM. An atrial action potential-like protocol consisting of a voltage ramp (+10 mV to −85 mV for a 150 ms duration and a holding potential at −85 mV) was then applied to cells at 5 Hz for 12 s until no further current change or inhibition was observed. The percent inhibition (expressed as ([Iafter compound treatment/Ibefore compound treatment]×100%) is calculated by normalizing the peak current amplitude at the last pulse of each of the 6 compound concentrations by the amplitude before exposure to the test compound. The compiled data was further normalized by vehicle control (DMSO) to account for Nav1.5 current run-down, and IC50 was calculated by Matlab (MathWorks, USA).

[2] = target: T1, human Nav1.5; assay: Qpatch automated patch-clamp, peak Nav1.5 current inhibition, 1 Hz sinus rate, ventricular condition (holding potential -100 mV); settings: CHO-K1 cells stably expressing human Nav1.5, without ATX-II
Description: as §1, §2, §3
(§4) To assess peak Nav1.5 current inhibition mimicking a ventricular condition at sinus rate with or without ATX-II (Nav1.5 IC50 (1 Hz, ATXII) (μM) or (1 Hz, Sinus Rate) (μM)), compounds were first prepared at 10 mM in DMSO, and cells were pre-incubated with test compounds at each concentration for 3 min. in an ascending order of 0, 0.37, 1.1, 3.3, 10 and 30 uM. In the assay with ATX-II (Alomone Labs), 50 nM ATX-II was included during the 3-min. compound incubation. A square pulse (−10 mV; 400 ms and a holding potential at −100 mV) was run at 1 Hz for 25 s until no further inhibition or Nav1.5 current change was observed. The percent inhibition (expressed as ([Iafter compound treatment/Ibefore compound treatment]×100%) is calculated by normalizing the peak current amplitude at the last pulse of each of the 6 compound concentrations by the amplitude before exposure to the test compound. The compiled data was further normalized by vehicle control (DMSO) to account for Nav1.5 current run-down, and IC50 was calculated by Matlab (MathWorks, USA).

[3] = target: T1, human Nav1.5; assay: Qpatch automated patch-clamp, peak Nav1.5 current inhibition, 1 Hz with 50 nM ATX-II (holding potential -100 mV); settings: CHO-K1 cells stably expressing human Nav1.5, read-out: Nav1.5 IC50 (1 Hz, ATXII)
Description: as §1, §2, §3, §4

T1 sequence (Q14524 whole entry): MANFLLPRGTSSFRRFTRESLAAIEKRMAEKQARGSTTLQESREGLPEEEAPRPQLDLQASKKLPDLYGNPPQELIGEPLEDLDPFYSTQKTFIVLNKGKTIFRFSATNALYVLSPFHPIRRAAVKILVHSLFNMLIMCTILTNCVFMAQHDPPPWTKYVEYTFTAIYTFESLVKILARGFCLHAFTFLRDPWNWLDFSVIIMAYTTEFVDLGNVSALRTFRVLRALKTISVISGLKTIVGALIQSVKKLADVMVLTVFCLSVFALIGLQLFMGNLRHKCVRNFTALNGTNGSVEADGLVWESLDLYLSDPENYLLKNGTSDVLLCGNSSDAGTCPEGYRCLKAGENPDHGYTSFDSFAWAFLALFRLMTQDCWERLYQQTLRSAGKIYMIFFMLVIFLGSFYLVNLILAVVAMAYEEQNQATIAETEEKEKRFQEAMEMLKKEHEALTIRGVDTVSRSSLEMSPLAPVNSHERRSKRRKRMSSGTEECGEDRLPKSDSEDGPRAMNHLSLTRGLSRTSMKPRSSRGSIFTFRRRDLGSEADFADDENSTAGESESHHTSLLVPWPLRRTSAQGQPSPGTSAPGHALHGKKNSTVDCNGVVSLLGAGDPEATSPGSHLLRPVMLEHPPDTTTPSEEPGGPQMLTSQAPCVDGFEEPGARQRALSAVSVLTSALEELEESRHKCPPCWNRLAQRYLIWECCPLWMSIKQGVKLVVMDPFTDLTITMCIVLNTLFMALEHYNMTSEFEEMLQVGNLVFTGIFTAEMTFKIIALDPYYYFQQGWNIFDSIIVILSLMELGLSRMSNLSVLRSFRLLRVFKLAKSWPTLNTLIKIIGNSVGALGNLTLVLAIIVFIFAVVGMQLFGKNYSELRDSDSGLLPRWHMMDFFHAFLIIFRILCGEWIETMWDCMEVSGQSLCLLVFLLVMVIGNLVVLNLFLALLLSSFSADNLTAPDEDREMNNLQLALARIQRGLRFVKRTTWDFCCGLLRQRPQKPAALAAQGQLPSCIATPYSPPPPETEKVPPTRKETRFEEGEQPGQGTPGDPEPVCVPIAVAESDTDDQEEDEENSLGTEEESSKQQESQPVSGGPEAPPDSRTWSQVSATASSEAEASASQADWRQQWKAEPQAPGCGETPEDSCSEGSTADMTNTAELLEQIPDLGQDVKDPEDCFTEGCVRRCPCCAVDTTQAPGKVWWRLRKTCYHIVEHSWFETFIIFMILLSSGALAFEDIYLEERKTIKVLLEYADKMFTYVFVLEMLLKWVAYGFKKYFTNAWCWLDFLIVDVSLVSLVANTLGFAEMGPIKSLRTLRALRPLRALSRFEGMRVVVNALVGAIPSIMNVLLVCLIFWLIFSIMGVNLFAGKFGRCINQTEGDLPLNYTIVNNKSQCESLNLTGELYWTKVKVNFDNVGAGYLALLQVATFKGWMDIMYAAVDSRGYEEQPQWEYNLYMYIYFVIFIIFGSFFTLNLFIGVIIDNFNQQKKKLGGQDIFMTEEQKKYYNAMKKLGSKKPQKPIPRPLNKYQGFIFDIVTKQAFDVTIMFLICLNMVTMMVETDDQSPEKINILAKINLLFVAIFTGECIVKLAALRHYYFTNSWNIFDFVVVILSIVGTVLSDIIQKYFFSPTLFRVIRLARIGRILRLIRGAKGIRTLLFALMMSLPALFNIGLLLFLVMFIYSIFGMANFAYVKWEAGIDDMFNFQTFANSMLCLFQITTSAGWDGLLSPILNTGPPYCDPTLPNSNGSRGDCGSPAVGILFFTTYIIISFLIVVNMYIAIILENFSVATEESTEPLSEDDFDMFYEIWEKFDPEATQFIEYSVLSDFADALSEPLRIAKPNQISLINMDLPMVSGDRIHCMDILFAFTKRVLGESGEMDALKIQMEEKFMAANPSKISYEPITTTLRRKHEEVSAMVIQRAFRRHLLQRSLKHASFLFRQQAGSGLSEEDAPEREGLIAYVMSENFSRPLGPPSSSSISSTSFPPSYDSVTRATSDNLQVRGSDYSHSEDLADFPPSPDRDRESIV

`CC(O)(CS(N)(=O)=O)c1cccc(-c2nnn(Cc3c(F)ccc4c3OC(F)(F)O4)n2)n1` (single isomer, unassigned) [Example 3, (R or S)-2-hydroxy-2-(6-(2-((2,2,5-trifluorobenzo[d][1,3]dioxol-4-yl)methyl)-2H-tetrazol-5-yl)pyridin-2-yl)propane-1-sulfonamide] showed an IC50 [1] of 7.5 µM and an IC50 [2] of over 30 µM.
For `CC(O)(CS(N)(=O)=O)c1cccc(-c2nnn(Cc3c(F)ccc4c3OC(F)(F)O4)n2)n1` (single isomer, unassigned) [Example 4, (R or S)-2-hydroxy-2-(6-(2-((2,2,5-trifluorobenzo[d][1,3]dioxol-4-yl)methyl)-2H-tetrazol-5-yl)pyridin-2-yl)propane-1-sulfonamide], the IC50 [1] was 6.7 µM and the IC50 [2] was over 30 µM.
Work on `CC(O)(CS(N)(=O)=O)c1cc(-c2nnn(Cc3cc(OC(F)(F)F)ccc3F)n2)ccc1F` (single isomer, unassigned) [Example 5, (R or S)-2-(2-fluoro-5-(2-(2-fluoro-5-(trifluoromethoxy)benzyl)-2H-tetrazol-5-yl)phenyl)-2-hydroxypropane-1-sulfonamide] yielded an IC50 [1] of 7.9 µM and an IC50 [2] of over 30 µM.
`CC(O)(CS(N)(=O)=O)c1cc(-c2nnn(Cc3cc(OC(F)(F)F)ccc3F)n2)ccc1F` (single isomer, unassigned) [Example 6, (R or S)-2-(2-fluoro-5-(2-(2-fluoro-5-(trifluoromethoxy)benzyl)-2H-tetrazol-5-yl)phenyl)-2-hydroxypropane-1-sulfonamide] gave an IC50 [1] of 7.9 µM and an IC50 [2] of over 30 µM.
Work on `CC(c1cccc(-c2nnn(Cc3cc(OC(F)(F)F)ccc3F)n2)n1)C(CO)S(N)(=O)=O` (single isomer, unassigned) [Example 31, (2R or 2S, 3R or 3S)-3-(6-(2-(2-fluoro-5-(trifluoromethoxy)benzyl)-2H-tetrazol-5-yl)pyridin-2-yl)-1-hydroxybutane-2-sulfonamide] yielded an IC50 [1] of 1.1 µM and an IC50 [2] of 7.8 µM.
In the case of `CC(c1cccc(-c2nnn(Cc3cc(OC(F)(F)F)ccc3F)n2)n1)C(CO)S(N)(=O)=O` (single isomer, unassigned) [Example 32, (2R or 2S,3R or 3S)-3-(6-(2-(2-fluoro-5-(trifluoromethoxy)benzyl)-2H-tetrazol-5-yl)pyridin-2-yl)-1-hydroxybutane-2-sulfonamide], the IC50 [1] is reported as 2.7 µM and the IC50 [2] is reported as 28 µM.
`CC(c1cccc(-c2nnn(Cc3cc(OC(F)(F)F)ccc3F)n2)n1)C(CO)S(N)(=O)=O` (single isomer, unassigned) [Example 33, (2R or 2S,3R or 3S)-3-(6-(2-(2-fluoro-5-(trifluoromethoxy)benzyl)-2H-tetrazol-5-yl)pyridin-2-yl)-1-hydroxybutane-2-sulfonamide] was tested, and the IC50 [1] was 1.3 µM and the IC50 [2] was 6.7 µM.
Compound `CC(c1cccc(-c2nnn(Cc3cc(OC(F)(F)F)ccc3F)n2)n1)C(CO)S(N)(=O)=O` (single isomer, unassigned) [Example 34, (2R or 2S, 3R or 3S)-3-(6-(2-(2-fluoro-5-(trifluoromethoxy)benzyl)-2H-tetrazol-5-yl)pyridin-2-yl)-1-hydroxybutane-2-sulfonamide] has an IC50 [1] of 2.2 µM and an IC50 [2] of over 30 µM.
`CC(O)(CS(N)(=O)=O)c1cccc(-c2nc(Cc3cc(OC(F)(F)F)ccc3F)no2)n1` (single isomer, unassigned) [Example 58, (R or S)-2-(6-(3-(2-fluoro-5-(trifluoromethoxy)benzyl)-1,2,4-oxadiazol-5-yl)pyridin-2-yl)-2-hydroxypropane-1-sulfonamide] showed an IC50 [1] of 5 µM and an IC50 [3] of over 30 µM.
With `CC(O)(CS(N)(=O)=O)c1cccc(-c2cn(Cc3cc(OC(F)(F)F)ccc3F)nn2)n1` (single isomer, unassigned) [Example 59, (R or S)-2-(6-(1-(2-fluoro-5-(trifluoromethoxy)benzyl)-1H-1,2,3-triazol-4-yl)pyridin-2-yl)-2-hydroxypropane-1-sulfonamide] the IC50 [1] was 3.4 µM and the IC50 [3] was 8.6 µM.
In the case of `CC(O)(CS(N)(=O)=O)c1cccc(-c2cn(Cc3cc(OC(F)(F)F)ccc3F)nn2)n1` (single isomer, unassigned) [Example 60, (R or S)-2-(6-(1-(2-fluoro-5-(trifluoromethoxy)benzyl)-1H-1,2,3-triazol-4-yl)pyridin-2-yl)-2-hydroxypropane-1-sulfonamide], the IC50 [1] is reported as 7 µM and the IC50 [3] is reported as 16 µM.
With `CC(O)(CS(N)(=O)=O)c1cccc(-c2cnn(Cc3cc(OC(F)(F)F)ccc3F)n2)n1` (single isomer, unassigned) [Example 61, (R or S)-2-(6-(2-(2-fluoro-5-(trifluoromethoxy)benzyl)-2H-1,2,3-triazol-4-yl)pyridin-2-yl)-2-hydroxypropane-1-sulfonamide] the IC50 [1] was 5 µM and the IC50 [3] was over 30 µM.
`CC(O)(CS(N)(=O)=O)c1cccc(-c2nnn(Cc3cc(OC(F)(F)F)ccc3F)n2)c1` (single isomer, unassigned) [Rac-25 + 26, (R or S)-2-(3-(2-(2-fluoro-5-(trifluoromethoxy)benzyl)-2H-tetrazol-5-yl)phenyl)-2-hydroxypropane-1-sulfonamide] showed an IC50 [1] of 2.2 µM and an IC50 [3] of over 30 µM.
`CC(O)(CS(N)(=O)=O)c1cccc(-c2nnn(Cc3cc(OCC(F)(F)F)ccc3F)n2)n1` (single isomer, unassigned) [Rac-29+30, (R or S)-2-(6-(2-(2-fluoro-5-(2,2,2-trifluoroethoxy)benzyl)-2H-tetrazol-5-yl)pyridin-2-yl)-2-hydroxypropane-1-sulfonamide] gave an IC50 [1] of 2.5 µM and an IC50 [3] of 3 µM.
In the case of `CC(O)(CS(N)(=O)=O)c1cccc(-c2ccn(Cc3cc(OC(F)(F)F)ccc3F)n2)n1` (single isomer, unassigned) [Rac-37 + 38, (R or S)-2-(6-(1-(2-fluoro-5-(trifluoromethoxy)benzyl)-1H-pyrazol-3-yl)pyridin-2-yl)-2-hydroxypropane-1-sulfonamide], the IC50 [1] is reported as 2.3 µM and the IC50 [3] is reported as over 30 µM.
Compound `CC(O)(CS(N)(=O)=O)c1cccc(-c2cn(Cc3cc(OC(F)(F)F)ccc3F)nn2)n1` (single isomer, unassigned) [Rac-59 + 60, (R or S)-2-(6-(1-(2-fluoro-5-(trifluoromethoxy)benzyl)-1H-1,2,3-triazol-4-yl)pyridin-2-yl)-2-hydroxypropane-1-sulfonamide] has an IC50 [1] of 5.2 µM and an IC50 [3] of 15 µM.
In the case of `C[C@@](O)(CS(N)(=O)=O)c1cccc(-c2nnn(Cc3cc(OC(F)(F)F)ccc3F)n2)n1` [Example 2, (S)-2-(6-(2-(2-fluoro-5-(trifluoromethoxy)benzyl)-2H-tetrazol-5-yl)pyridin-2-yl)-2-hydroxypropane-1-sulfonamide], the IC50 [1] is reported as 4.7 µM and the IC50 [3] is reported as over 30 µM.
